How the values were obtained:
[1] = Antiproliferative activity against human BT474C cells; format: functional, cell-based
[2] = target: T1, Receptor tyrosine-protein kinase erbB-2 (Homo sapiens, UniProt P04626); assay: Inhibition of erbB2
[3] = target: T1, Receptor tyrosine-protein kinase erbB-2; assay: Inhibition of erB2 autophosphorylation in clone 24 cells; format: cell-based
[4] = target: Epidermal growth factor receptor (Homo sapiens, UniProt P00533)
[5] = Volume of distribution at steady state in male and female Beagle dog at 0.2 mg/kg, iv and 0.4 mg/kg, po; format: ADME, organism-based, Canis lupus familiaris; conditions: both, in vivo, read-out: Vdss
[6] = Half life in rat at 0.4 mg/kg, iv and 1 mg/kg, po; format: ADME, organism-based; conditions: in vivo
[7] = test system: P-gp; assay: Apparent permeability from apical to basolateral side of the dog MDCK cells expressing P-gp transporter; format: ADME, cell-based, Canis lupus familiaris; conditions: MDCK-MDR1
[8] = test system: KB; assay: Antiproliferative activity against EGF-induced human KB cells; format: functional, cell-based
[9] = Half life in male and female Beagle dog at 0.2 mg/kg, iv and 0.4 mg/kg, po; format: ADME, organism-based, Canis lupus familiaris; conditions: both, in vivo
[10] = Clearance in rat at 0.4 mg/kg, iv and 1 mg/kg, po; format: ADME, organism-based; conditions: in vivo
[11] = Protein binding in Beagle dog plasma assessed as unbound ligand at 0.2 mg/kg, iv and 0.4 mg/kg, po; format: ADME, organism-based, Canis lupus familiaris; conditions: read-out: PPB
[12] = Volume of distribution at steady state in rat at 0.4 mg/kg, iv and 1 mg/kg, po; format: ADME, organism-based; conditions: in vivo, read-out: Vdss
[13] = Clearance in male and female Beagle dog at 0.2 mg/kg, iv and 0.4 mg/kg, po; format: ADME, organism-based, Canis lupus familiaris; conditions: both, in vivo
[14] = Protein binding in rat plasma assessed as unbound ligand at 0.4 mg/kg, iv and 1 mg/kg, po; format: ADME, organism-based
[15] = Oral bioavailability in rat at 1 mg/kg; format: ADME, organism-based; conditions: in vivo
[16] = Oral bioavailability in male and female Beagle dog at 0.4 mg/kg; format: ADME, organism-based, Canis lupus familiaris; conditions: both, in vivo

Sequence of Epidermal growth factor receptor (P00533 whole entry): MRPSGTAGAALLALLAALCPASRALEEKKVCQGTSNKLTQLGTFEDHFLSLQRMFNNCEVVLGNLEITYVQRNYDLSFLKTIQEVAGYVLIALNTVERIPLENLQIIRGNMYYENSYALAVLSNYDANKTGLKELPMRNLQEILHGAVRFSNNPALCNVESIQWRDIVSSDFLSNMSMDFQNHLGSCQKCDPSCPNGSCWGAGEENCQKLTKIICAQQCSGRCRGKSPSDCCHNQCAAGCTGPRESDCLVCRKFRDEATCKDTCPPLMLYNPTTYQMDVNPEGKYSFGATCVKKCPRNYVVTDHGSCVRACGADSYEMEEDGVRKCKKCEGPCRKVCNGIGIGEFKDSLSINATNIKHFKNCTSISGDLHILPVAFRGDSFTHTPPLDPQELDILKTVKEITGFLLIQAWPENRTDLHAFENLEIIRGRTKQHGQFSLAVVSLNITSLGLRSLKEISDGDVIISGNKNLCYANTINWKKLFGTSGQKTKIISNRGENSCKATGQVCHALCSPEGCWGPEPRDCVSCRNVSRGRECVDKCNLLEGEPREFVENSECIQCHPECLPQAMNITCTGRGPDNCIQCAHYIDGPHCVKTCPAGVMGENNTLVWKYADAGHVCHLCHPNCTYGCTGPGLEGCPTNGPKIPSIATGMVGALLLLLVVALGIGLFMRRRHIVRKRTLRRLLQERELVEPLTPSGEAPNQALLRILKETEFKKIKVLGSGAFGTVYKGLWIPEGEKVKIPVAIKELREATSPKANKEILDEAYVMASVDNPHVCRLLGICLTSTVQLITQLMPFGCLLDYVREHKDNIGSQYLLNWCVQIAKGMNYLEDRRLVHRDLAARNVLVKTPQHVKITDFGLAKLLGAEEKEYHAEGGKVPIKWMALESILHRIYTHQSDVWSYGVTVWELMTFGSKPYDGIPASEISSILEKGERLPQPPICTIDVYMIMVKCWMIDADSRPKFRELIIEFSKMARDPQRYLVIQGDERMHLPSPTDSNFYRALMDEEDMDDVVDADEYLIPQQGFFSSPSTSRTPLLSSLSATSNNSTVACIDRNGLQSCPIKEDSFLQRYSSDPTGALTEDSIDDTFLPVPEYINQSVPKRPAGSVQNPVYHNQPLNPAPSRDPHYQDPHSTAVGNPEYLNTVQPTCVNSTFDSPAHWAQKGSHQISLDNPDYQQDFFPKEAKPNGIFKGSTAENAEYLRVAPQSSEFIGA
T1 sequence (P04626 whole entry): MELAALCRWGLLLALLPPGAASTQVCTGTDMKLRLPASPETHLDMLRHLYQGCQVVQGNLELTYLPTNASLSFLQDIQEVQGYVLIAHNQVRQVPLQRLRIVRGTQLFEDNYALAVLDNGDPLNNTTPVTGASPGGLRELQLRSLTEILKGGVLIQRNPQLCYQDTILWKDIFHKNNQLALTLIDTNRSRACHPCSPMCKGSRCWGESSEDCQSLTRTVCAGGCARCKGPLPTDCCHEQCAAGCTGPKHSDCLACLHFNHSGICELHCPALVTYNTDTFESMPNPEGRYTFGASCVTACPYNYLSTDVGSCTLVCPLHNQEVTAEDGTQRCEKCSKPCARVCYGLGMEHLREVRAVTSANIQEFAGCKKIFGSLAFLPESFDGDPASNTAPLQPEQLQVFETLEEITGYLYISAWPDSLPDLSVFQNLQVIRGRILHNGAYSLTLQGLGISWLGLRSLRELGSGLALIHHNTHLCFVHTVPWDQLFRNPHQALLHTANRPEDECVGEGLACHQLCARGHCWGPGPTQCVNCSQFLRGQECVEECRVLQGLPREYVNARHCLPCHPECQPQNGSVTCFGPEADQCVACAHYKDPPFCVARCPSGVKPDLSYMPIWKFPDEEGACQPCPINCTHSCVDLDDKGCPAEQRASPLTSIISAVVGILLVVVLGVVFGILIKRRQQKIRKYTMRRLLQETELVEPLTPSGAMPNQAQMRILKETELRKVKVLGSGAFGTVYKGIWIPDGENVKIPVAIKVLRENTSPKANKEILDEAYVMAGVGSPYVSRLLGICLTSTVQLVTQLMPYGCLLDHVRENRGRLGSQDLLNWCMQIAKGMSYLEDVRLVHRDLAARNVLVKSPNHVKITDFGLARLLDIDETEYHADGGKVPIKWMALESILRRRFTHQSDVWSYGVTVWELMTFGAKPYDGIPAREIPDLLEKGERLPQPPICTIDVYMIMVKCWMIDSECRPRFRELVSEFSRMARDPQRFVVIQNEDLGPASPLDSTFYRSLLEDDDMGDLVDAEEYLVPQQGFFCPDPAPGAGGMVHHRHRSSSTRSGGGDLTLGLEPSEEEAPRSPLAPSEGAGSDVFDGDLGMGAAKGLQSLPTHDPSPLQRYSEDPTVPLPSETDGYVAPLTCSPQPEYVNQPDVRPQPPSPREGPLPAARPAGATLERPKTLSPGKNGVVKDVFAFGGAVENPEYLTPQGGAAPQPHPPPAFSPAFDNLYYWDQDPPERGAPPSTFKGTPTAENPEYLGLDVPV

IC50 [2] [nM] | IC50 [3] [nM] | IC50 [4] [nM] | SMILES | further results
– | – | – | CN1CCC(Oc2cccc3ncnc(Nc4ccc(OCc5ccccn5)c(Cl)c4)c23)CC1 | IC50 [1]: 41 nM
3 | 1000 | 17 | CNCCOc1n[nH]c2ncnc(Nc3ccc(OCc4ccccn4)c(Cl)c3)c12 | –
< 1 | 184 | 7 | Cc1ccc(Oc2ccc(Nc3ncnc4[nH]nc(OCCN5CCC(O)CC5)c34)cc2Cl)cn1 | –
3 | 128 | 8 | Clc1cc(Nc2ncnc3[nH]nc(OCCN4CCNCC4)c23)ccc1OCc1ccccn1 | –
6 | – | – | OC1CCN(CCCOc2n[nH]c3ncnc(Nc4ccc(OCc5ccccn5)c(Cl)c4)c23)CC1 | –
11 | 415 | – | Cc1ccc(Oc2ccc(Nc3ncnc4[nH]nc(OCCN5CCC(O)CC5)c34)cc2C)cn1 | –
5 | – | 1430 | Cc1ccc(Oc2ccc(Nc3ncnc4[nH]nc(OCCN5CCC(O)CC5)c34)cc2F)cn1 | –
1 | 166 | 5 | CN1CCN(CCOc2n[nH]c3ncnc(Nc4ccc(OCc5ccccn5)c(Cl)c4)c23)CC1 | Vd [5]: 9 L/kg; half-life [6]: 1.4 h; Papp A→B [7]: 9.5 ×10⁻⁶ cm/s; IC50 [8]: 220 nM; half-life [9]: 2.4 h; clearance [10]: 41 mL/min/kg; fraction unbound [11]: 0.21; Vd [12]: 4.5 L/kg; clearance [13]: 46 mL/min/kg; IC50 [1]: 17 nM; fraction unbound [14]: 0.1; bioavailability [15]: 23%; bioavailability [16]: 30%
4 | – | 14 | CN1CCN(CCCOc2n[nH]c3ncnc(Nc4ccc(OCc5ccccn5)c(Cl)c4)c23)CC1 | –
17 | 1480 | – | COc1cc(Nc2ncnc3[nH]nc(OCCN4CCC(O)CC4)c23)ccc1OCc1ccccn1 | –
3 | 613 | 13 | COc1cc(Nc2ncnc3[nH]nc(OCCN4CCC(O)CC4)c23)ccc1OCc1cccc(F)c1 | –
5 | 695 | 18 | Cc1cc(Nc2ncnc3[nH]nc(OCCN4CCC(O)CC4)c23)ccc1OCc1ccccn1 | –
5 | 135 | 13 | OC1CCN(CCOc2n[nH]c3ncnc(Nc4ccc(OCc5ccccn5)c(Cl)c4)c23)CC1 | –
4 | 82 | 28 | COC1CCN(CCOc2n[nH]c3ncnc(Nc4ccc(OCc5ccccn5)c(Cl)c4)c23)CC1 | –
< 1 | 107 | < 1 | Cc1cc(Nc2ncnc3[nH]nc(OCCN4CCC(O)CC4)c23)ccc1OCc1cccc(F)c1 | –

SMILES | IC50 [2] [nM] | IC50 [3] [nM] | IC50 [4] [nM] | further results
OC1CCN(CCOc2n[nH]c3ncnc(Nc4ccc(OCc5cccc(F)c5)c(Cl)c4)c23)CC1 | < 1 | 19 | < 1 | –
Clc1cc(Nc2ncnc3[nH]nc(OCCCN4CCOCC4)c23)ccc1OCc1ccccn1 | < 1 | 440 | 16 | –
OCCOc1n[nH]c2ncnc(Nc3ccc(OCc4ccccn4)c(Cl)c3)c12 | 4 | – | 16 | –
CC(=O)N1CCN(CCOc2n[nH]c3ncnc(Nc4ccc(OCc5ccccn5)c(Cl)c4)c23)CC1 | < 1 | 129 | 3 | –
Clc1cc(Nc2ncnc3n[nH]c(OCCN4CCCCCO4)c23)ccc1OCc1ccccn1 | < 1 | 148 | < 1 | –
Clc1cc(Nc2ncnc3[nH]nc(OCCN4CCOCC4)c23)ccc1OCc1ccccn1 | < 1 | – | 1 | –

Source: ChEMBL document CHEMBL1143160, “Novel 3-alkoxy-1H-pyrazolo[3,4-d]pyrimidines as EGFR and erbB2 receptor tyrosine kinase inhibitors” (Bioorg Med Chem Lett, 2008)
